Experiment in all cases: Growth inhibitory activity of compounds on BaF3 cell lines stably transfected with kinase (MTS, 48 h)
Common to all, as to assay type: cell-based

The target of assay [1] is T1, various mutants of kinase EGFR (BaF3 cell lines stably transfected with kinase) (Homo sapiens, UniProt P00533, C797S/L858R/T790M).
T1 construct: expressed in transfected cells; host or cells: BaF3
Particulars: BaF3 cell line stably transfected with EGFR L858R/T790M/C797S, read-out: L858R/T790M/ C797S growth inhibitory activity IC50. In short, it runs like this: (§1)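 Transfected cells received compound (max 10 µM, 8 concentrations) for 48 h; MTS readout at 490 nm yielded IC50.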

Assay [2] addresses T2, various mutants of kinase EGFR (BaF3 cell lines stably transfected with kinase) (Homo sapiens, UniProt P00533, T790M/C797S, form not given).
T2 construct: other: BaF3 cells stably transfected with EGFR Δ19Del/T790M/C797S; MTS, 48; other: BaF3 cell line stably transfected with EGFR Δ19Del/T790M/C7
Particulars: BaF3 cell line stably transfected with EGFR Δ19Del/T790M/C797S, read-out: Δ19Del/T790M/ C797S growth inhibitory activity IC50. In short, it runs like this: as §1

The target of assay [3] is T3, various mutants of kinase EGFR (BaF3 cell lines stably transfected with kinase) (Homo sapiens, UniProt P00533).
T3 construct: other: BaF3 cells stably transfected with EGFR Δ19Del; MTS, 48 h; other: BaF3 cell line stably transfected with EGFR Δ19Del
Particulars: BaF3 cell line stably transfected with EGFR Δ19Del, read-out: Δ19Del growth inhibitory activity IC50. In short, it runs like this: as §1

Assay [4] has as its target T4, various mutants of kinase EGFR (BaF3 cell lines stably transfected with kinase) (Homo sapiens, UniProt P00533, T790M, form not given).
T4 construct: other: BaF3 cells stably transfected with EGFR Δ19Del/T790M; MTS, 48 h; other: BaF3 cell line stably transfected with EGFR Δ19Del/T790M; MTS, 48
Particulars: BaF3 cell line stably transfected with EGFR Δ19Del/T790M, read-out: Δ19Del/ T790M growth inhibitory activity IC50. In short, it runs like this: as §1

The target in assay [5] is T5, various mutants of kinase EGFR (BaF3 cell lines stably transfected with kinase) (Homo sapiens, UniProt P00533, L858R/T790M).
T5 construct: expressed in transfected cells; host or cells: BaF3
Particulars: BaF3 cell line stably transfected with EGFR L858R/T790M, read-out: L858R/ T790M growth inhibitory activity IC50. A digest of the protocol: as §1

The target in assay [6] is T6, various mutants of kinase EGFR (BaF3 cell lines stably transfected with kinase) (Homo sapiens, UniProt P00533, L858R).
T6 construct: expressed in transfected cells; host or cells: BaF3
Particulars: BaF3 cell line stably transfected with EGFR L858R, read-out: L858R growth inhibitory activity IC50. In short, it runs like this:
as §1

T2 sequence (P00533 with tags, fused parts or gaps DEL746-750/T790M/C797S, form open): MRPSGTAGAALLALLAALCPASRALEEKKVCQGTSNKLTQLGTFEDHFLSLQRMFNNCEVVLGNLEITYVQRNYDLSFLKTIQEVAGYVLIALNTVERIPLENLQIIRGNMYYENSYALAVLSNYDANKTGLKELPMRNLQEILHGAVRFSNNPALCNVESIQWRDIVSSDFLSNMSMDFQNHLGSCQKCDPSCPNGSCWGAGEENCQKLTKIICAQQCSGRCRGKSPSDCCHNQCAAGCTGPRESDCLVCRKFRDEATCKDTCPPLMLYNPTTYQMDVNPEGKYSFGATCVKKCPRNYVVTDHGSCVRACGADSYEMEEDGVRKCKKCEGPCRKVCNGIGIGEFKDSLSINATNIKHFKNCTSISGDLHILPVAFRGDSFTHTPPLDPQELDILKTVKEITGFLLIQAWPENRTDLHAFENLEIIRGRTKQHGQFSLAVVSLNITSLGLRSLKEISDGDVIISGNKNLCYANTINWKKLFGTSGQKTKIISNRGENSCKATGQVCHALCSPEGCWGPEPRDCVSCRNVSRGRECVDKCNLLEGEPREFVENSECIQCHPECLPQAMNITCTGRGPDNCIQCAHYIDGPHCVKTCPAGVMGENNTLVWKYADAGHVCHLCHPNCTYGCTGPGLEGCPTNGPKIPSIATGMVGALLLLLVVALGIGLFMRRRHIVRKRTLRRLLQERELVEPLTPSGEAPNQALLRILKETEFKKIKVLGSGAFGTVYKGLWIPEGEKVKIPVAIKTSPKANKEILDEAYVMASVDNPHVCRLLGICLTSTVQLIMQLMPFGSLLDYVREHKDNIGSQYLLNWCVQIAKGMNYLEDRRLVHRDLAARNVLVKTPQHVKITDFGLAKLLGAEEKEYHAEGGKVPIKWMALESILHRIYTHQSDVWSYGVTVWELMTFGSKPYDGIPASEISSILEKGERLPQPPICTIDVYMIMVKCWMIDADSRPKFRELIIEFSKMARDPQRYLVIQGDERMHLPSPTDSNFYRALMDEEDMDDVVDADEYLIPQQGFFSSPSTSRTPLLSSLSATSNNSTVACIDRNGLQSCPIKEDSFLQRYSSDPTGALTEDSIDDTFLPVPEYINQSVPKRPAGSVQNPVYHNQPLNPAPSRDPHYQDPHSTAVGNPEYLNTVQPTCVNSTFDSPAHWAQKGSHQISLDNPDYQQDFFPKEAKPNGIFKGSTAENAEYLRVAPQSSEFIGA
T4 sequence (P00533 with tags, fused parts or gaps DEL746-750/T790M, form open): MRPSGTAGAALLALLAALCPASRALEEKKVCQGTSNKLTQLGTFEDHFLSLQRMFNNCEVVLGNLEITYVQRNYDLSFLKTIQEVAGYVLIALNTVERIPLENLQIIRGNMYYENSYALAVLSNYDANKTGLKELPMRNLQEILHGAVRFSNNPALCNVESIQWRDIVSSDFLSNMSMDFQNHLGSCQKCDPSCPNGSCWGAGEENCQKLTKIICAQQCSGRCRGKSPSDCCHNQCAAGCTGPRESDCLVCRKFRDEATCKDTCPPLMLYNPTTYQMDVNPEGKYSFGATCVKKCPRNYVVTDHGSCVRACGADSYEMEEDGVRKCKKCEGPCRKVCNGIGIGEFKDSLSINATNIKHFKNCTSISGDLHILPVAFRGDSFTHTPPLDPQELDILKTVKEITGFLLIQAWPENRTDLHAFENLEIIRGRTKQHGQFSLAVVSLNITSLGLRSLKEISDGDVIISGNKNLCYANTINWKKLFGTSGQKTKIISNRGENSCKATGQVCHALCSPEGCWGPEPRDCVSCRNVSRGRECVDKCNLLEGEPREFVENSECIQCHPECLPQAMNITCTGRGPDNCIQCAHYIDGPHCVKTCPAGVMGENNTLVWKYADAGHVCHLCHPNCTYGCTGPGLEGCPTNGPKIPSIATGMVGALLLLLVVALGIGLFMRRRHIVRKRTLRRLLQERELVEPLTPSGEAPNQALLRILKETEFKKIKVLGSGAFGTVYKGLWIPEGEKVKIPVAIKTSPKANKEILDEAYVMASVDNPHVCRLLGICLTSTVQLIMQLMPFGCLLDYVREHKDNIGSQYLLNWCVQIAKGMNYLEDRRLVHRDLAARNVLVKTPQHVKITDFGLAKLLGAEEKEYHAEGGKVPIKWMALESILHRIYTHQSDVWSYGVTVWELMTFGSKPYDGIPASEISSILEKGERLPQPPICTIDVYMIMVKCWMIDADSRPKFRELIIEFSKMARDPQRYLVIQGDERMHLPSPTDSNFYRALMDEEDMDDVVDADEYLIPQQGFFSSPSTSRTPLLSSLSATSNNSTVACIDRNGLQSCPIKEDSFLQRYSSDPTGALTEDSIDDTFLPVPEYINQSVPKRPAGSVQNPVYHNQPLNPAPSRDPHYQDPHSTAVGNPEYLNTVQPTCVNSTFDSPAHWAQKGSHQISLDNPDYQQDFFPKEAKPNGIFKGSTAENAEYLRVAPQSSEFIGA
T3 sequence (P00533 with tags, fused parts or gaps DEL746-750): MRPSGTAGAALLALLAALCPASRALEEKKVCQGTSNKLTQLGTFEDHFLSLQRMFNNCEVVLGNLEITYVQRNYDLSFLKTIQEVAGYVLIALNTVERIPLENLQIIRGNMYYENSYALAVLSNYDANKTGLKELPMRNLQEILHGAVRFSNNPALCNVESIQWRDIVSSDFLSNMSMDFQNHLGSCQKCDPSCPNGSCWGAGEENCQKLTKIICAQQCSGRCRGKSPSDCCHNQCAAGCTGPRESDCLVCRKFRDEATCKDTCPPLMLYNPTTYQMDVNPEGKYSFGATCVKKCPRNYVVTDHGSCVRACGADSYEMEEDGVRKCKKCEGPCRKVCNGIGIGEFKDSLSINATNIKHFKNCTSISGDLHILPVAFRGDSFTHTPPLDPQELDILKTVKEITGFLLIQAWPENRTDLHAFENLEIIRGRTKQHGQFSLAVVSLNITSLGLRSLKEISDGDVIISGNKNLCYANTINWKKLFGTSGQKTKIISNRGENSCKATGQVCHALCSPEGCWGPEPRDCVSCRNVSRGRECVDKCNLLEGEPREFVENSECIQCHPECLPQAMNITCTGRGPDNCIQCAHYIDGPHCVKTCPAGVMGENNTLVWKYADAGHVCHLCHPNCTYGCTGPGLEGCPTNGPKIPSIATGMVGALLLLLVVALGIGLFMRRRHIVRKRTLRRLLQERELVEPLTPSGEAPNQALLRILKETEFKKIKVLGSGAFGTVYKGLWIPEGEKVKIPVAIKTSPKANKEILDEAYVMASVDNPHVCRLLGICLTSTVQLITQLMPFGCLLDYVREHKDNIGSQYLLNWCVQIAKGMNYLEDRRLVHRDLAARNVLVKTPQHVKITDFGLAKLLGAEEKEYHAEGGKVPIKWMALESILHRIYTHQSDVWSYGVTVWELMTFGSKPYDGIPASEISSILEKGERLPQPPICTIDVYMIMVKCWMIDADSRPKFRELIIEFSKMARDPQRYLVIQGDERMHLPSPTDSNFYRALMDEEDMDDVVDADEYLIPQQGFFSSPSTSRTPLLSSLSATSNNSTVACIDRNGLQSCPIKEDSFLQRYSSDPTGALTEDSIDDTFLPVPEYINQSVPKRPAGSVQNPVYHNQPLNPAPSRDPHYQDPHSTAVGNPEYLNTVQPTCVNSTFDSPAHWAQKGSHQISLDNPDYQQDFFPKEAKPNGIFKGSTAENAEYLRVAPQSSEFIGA
T6 sequence (P00533 25-1210 L858R): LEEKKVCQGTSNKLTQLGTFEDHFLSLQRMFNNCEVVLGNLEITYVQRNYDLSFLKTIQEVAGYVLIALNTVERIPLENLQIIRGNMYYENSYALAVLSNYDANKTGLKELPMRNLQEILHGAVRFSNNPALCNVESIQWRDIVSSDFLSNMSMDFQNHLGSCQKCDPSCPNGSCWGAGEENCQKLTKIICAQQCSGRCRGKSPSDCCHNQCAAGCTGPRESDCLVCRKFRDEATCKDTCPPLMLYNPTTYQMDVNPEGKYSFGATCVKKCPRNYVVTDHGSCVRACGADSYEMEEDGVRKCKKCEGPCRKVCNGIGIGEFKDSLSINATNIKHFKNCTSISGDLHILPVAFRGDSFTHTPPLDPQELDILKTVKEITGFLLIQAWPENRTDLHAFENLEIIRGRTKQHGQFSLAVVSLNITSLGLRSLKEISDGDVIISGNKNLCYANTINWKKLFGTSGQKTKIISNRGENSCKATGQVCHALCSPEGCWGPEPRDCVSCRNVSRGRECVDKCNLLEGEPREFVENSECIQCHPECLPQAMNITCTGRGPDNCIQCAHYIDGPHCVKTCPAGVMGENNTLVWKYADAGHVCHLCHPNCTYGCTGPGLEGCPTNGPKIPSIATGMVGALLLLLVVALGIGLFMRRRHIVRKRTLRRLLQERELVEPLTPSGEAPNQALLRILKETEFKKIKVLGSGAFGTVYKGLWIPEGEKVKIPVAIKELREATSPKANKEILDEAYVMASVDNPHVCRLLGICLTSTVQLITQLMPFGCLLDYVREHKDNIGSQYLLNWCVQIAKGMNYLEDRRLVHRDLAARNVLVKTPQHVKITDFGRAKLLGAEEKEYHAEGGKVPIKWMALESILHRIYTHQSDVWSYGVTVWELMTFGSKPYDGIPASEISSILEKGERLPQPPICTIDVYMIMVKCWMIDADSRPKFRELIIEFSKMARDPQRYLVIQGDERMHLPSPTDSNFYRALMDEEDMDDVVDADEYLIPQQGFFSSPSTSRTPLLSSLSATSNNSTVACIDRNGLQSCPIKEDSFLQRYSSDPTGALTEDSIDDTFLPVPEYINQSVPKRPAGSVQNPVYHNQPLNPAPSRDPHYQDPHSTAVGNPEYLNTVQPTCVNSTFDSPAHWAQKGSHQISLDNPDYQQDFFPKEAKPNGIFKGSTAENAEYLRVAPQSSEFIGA

For the compound `COc1cc(N2CCC(N3CCN(C)CC3)CC2)c(C)cc1Nc1nc(Nc2ccc3nccnc3c2N(C)S(C)(=O)=O)c2occc2n1` [II-1-25], the IC50 in assay [1] is 0.05 to 0.5 µM; in assay [2], no more than 0.05 µM; in assay [3], 0.05 to 0.5 µM; in assay [4], 0.05 to 0.5 µM; in assay [5] it was 0.05 to 0.5 µM; in assay [6] it was 0.05 to 0.5 µM.
Regarding `CCc1cc(Nc2nc(Nc3ccc4nccnc4c3N(C)S(C)(=O)=O)c3occc3n2)c(OC)cc1N1CCC(N2CCN(C)CC2)CC1` [II-1-26], the IC50 in assay [1] is no more than 0.05 µM; in assay [2], no more than 0.05 µM; in assay [3] it was 0.05 to 0.5 µM; in assay [4], no more than 0.05 µM; in assay [5], no more than 0.05 µM; in assay [6], 0.05 to 0.5 µM.
As to `COc1nc(N2CCC(N3CCN(C)CC3)CC2)ccc1Nc1nc(Nc2ccc3nccnc3c2N(C)S(C)(=O)=O)c2[nH]ccc2n1` [II-1-27], the IC50 in assay [1], in assay [2], in assay [3], in assay [4], in assay [5] and in assay [6] was 0.5 to 2.5 µM throughout.
With `COc1nc(N2CCC(N3CCN(C)CC3)CC2)c(C)cc1Nc1nc(Nc2ccc3nccnc3c2N(C)S(C)(=O)=O)c2[nH]ccc2n1` [II-1-28], the IC50 in assay [1], in assay [2], in assay [3], in assay [4], in assay [5] and in assay [6] was 0.5 to 2.5 µM each time.
As for `CN1CCN(C2CCN(c3ccc(Nc4nc(Nc5ccc6nccnc6c5N(C)S(C)(=O)=O)c5[nH]ccc5n4)c(OC(F)(F)F)c3)CC2)CC1` [II-1-29], the IC50 in assay [1] was 0.5 to 2.5 µM; in assay [2], 0.05 to 0.5 µM; in assay [3], 0.5 to 2.5 µM; in assay [4], 0.5 to 2.5 µM; in assay [5] it was 0.5 to 2.5 µM; in assay [6], 0.5 to 2.5 µM.
In the case of `COc1cc(N2CCC(N(C)C)CC2)c(C)cc1Nc1nc(Nc2ccc3nccnc3c2N(C)S(C)(=O)=O)c2[nH]ccc2n1` [II-1-31], the IC50 lay in the range of 0.5 to 2.5 µM in assay [1]; 0.05 to 0.5 µM in assay [2]; 0.5 to 2.5 µM in assay [3]; 0.5 to 2.5 µM in assay [4]; 0.5 to 2.5 µM in assay [5]; 0.5 to 2.5 µM in assay [6].
In the case of `CCc1cc(Nc2nc(Nc3ccc4nccnc4c3N(C)S(C)(=O)=O)c3[nH]ccc3n2)c(OC)cc1N1CCC(N(C)C)CC1` [II-1-32], the IC50 was 0.05 to 0.5 µM in assay [1]; 0.05 to 0.5 µM in assay [2]; 0.5 to 2.5 µM in assay [3]; 0.5 to 2.5 µM in assay [4]; 0.05 to 0.5 µM in assay [5]; 0.5 to 2.5 µM in assay [6].
Regarding `COc1cc(N2CCN(C)CC2)c(C)cc1Nc1nc(Nc2ccc3nccnc3c2N(C)S(C)(=O)=O)c2[nH]ccc2n1` [II-1-33], the IC50 in assay [1], in assay [2], in assay [3], in assay [4], in assay [5] and in assay [6] was 0.5 to 2.5 µM in each case.
As for `CCc1cc(Nc2nc(Nc3ccc4nccnc4c3N(C)S(C)(=O)=O)c3[nH]ccc3n2)c(OC)cc1N1CCN(C)CC1` [II-1-34], the IC50 in assay [1] lay in the range of 0.5 to 2.5 µM; in assay [2], 0.05 to 0.5 µM; in assay [3], 0.5 to 2.5 µM; in assay [4] it was 0.05 to 0.5 µM; in assay [5], 0.5 to 2.5 µM; in assay [6] it was 0.5 to 2.5 µM.
`COc1cc(N2CCC(N(C)C)C2)c(C)cc1Nc1nc(Nc2ccc3nccnc3c2N(C)S(C)(=O)=O)c2[nH]ccc2n1` (stereo not drawn) [II-1-35]: the IC50 in assay [1], in assay [2], in assay [3], in assay [4], in assay [5] and in assay [6] was 0.5 to 2.5 µM throughout.
For `CCc1cc(Nc2nc(Nc3ccc4nccnc4c3N(C)S(C)(=O)=O)c3[nH]ccc3n2)c(OC)cc1N1CCC(N(C)C)C1` (stereo not drawn) [II-1-36], the IC50 in assay [1], in assay [2], in assay [3], in assay [4], in assay [5] and in assay [6] was 0.5 to 2.5 µM each time.
Regarding `CCc1cc(Nc2nc(Nc3ccc4nccnc4c3N(C)S(C)(=O)=O)c3occc3n2)c(OC)nc1N1CCC(N2CCN(C)CC2)CC1` [II-1-39], the IC50 was 0.05 to 0.5 µM in assay [1]; no more than 0.05 µM in assay [2]; 0.5 to 2.5 µM in assay [3]; 0.05 to 0.5 µM in assay [4]; 0.05 to 0.5 µM in assay [5]; 0.5 to 2.5 µM in assay [6].
Turning to `CN1CCN(C2CCN(c3ccc(Nc4nc(Nc5ccc6nccnc6c5N(C)S(C)(=O)=O)c5occc5n4)c(OC(F)(F)F)c3)CC2)CC1` [II-1-40], the IC50 in assay [1] fell in the range of 0.5 to 2.5 µM; in assay [2], 0.5 to 2.5 µM; in assay [3], 0.5 to 2.5 µM; in assay [4], 0.05 to 0.5 µM; in assay [5], 0.5 to 2.5 µM; in assay [6], 0.5 to 2.5 µM.
Consider `CCc1cc(Nc2nc(Nc3ccc4nccnc4c3N(C)S(C)(=O)=O)c3occc3n2)c(OC(F)(F)F)cc1N1CCC(N2CCN(C)CC2)CC1` [II-1-41], for which the IC50 in assay [1] is 0.05 to 0.5 µM; in assay [2], 0.05 to 0.5 µM; in assay [3] it was 0.5 to 2.5 µM; in assay [4] it was 0.5 to 2.5 µM; in assay [5] it was 0.5 to 2.5 µM; in assay [6], 0.05 to 0.5 µM.
As to `C=Cc1cc(Nc2nc(Nc3ccc4nccnc4c3N(C)S(C)(=O)=O)c3occc3n2)c(OC(F)(F)F)cc1N1CCC(N2CCN(C)CC2)CC1` [II-1-42], the IC50 in assay [1], in assay [2], in assay [3], in assay [4], in assay [5] and in assay [6] was 0.05 to 0.5 µM throughout.
In the case of `COc1cc(N2CCC(N3CCN(C)CC3)CC2)c(CC2CC2)cc1Nc1nc(Nc2ccc3nccnc3c2N(C)S(C)(=O)=O)c2occc2n1` [II-1-43], the IC50 in assay [1] is 0.05 to 0.5 µM; in assay [2], 0.05 to 0.5 µM; in assay [3], 0.5 to 2.5 µM; in assay [4], 0.5 to 2.5 µM; in assay [5], 0.05 to 0.5 µM; in assay [6], 0.05 to 0.5 µM.
Take `COc1cc(N2CCC(N3CCN(C)CC3)CC2)c(Cc2ccccc2)cc1Nc1nc(Nc2ccc3nccnc3c2N(C)S(C)(=O)=O)c2occc2n1` [II-1-44]: the IC50 in assay [1] was in the range of 0.5 to 2.5 µM; in assay [2], 0.5 to 2.5 µM; in assay [3], 0.5 to 2.5 µM; in assay [4] it was 0.05 to 0.5 µM; in assay [5], 0.5 to 2.5 µM; in assay [6], 0.5 to 2.5 µM.
On to `COc1ccc(N2CCC(O)CC2)cc1Nc1nc(Nc2ccc3nccnc3c2N(C)S(C)(=O)=O)c2sccc2n1` [II-1-45], for which the IC50 in assay [1] was 0.05 to 0.5 µM; in assay [2] it was no more than 0.05 µM; in assay [3] it was 0.5 to 2.5 µM; in assay [4] it was 0.05 to 0.5 µM; in assay [5], 0.05 to 0.5 µM; in assay [6], 0.05 to 0.5 µM.
Turning to `COc1cc(N2CCC(N3CCN(C)CC3)CC2)c(C)cc1Nc1nc(Nc2ccc3nccnc3c2N(C)S(C)(=O)=O)c2ccsc2n1` [II-2-1], the IC50 was in the range of 0.5 to 2.5 µM in assay [1]; 0.05 to 0.5 µM in assay [2]; 0.5 to 2.5 µM in assay [3]; 0.5 to 2.5 µM in assay [4]; 0.5 to 2.5 µM in assay [5]; 0.5 to 2.5 µM in assay [6].
With `CCc1cc(Nc2nc(Nc3ccc4nccnc4c3N(C)S(C)(=O)=O)c3ccsc3n2)c(OC(F)(F)F)cc1N1CCC(N2CCN(C)CC2)CC1` [II-2-4], the IC50 in assay [1], in assay [2], in assay [3], in assay [4], in assay [5] and in assay [6] was 0.5 to 2.5 µM throughout.
On to `COc1cc(N2CCC(N3CCN(C)CC3)CC2)c(C)cc1Nc1nc(Nc2ccc3nccnc3c2N(C)S(C)(=O)=O)c2cc[nH]c2n1` [II-2-5], for which the IC50 in assay [1] is no more than 0.05 µM; in assay [2] it was no more than 0.05 µM; in assay [3], 0.05 to 0.5 µM; in assay [4] it was no more than 0.05 µM; in assay [5], no more than 0.05 µM; in assay [6], 0.05 to 0.5 µM.
Consider `CCc1cc(Nc2nc(Nc3ccc4nccnc4c3N(C)S(C)(=O)=O)c3cc[nH]c3n2)c(OC)nc1N1CCC(N2CCN(C)CC2)CC1` [II-2-7], for which the IC50 in assay [1] is no more than 0.05 µM; in assay [2], no more than 0.05 µM; in assay [3] it was 0.05 to 0.5 µM; in assay [4] it was no more than 0.05 µM; in assay [5], no more than 0.05 µM; in assay [6] it was 0.05 to 0.5 µM.

Source of the values: patent publication US20230310428A1, “EGFR INHIBITOR AND PREPARATION METHOD AND USE THEREOF” (HONGYUN BIOTECH CO., LTD., priority 2020, published 2023).
